From US5716950A, “Diazacycloalkanealkylsulfonamide derivatives” (Nippon Shoji Kabushiki Kaisha, priority 1994, dated 1998) come the findings set out here.

Data set [1] relates to passive cutaneous anaphylaxis (PCA). Kind of data set: Activity of suppressing passive cutaneous anaphylaxis (PCA). In kind it is in vivo, Male Wistar rats. As to conditions: Rattus norvegicus, po, 1 h, 10 mg/kg-po, 1 hour before antigen challenge; read-out: % suppression of rat PCA. The method, then: Test compounds were examined on their antiallergic activities. […] After 48 hours, 1.0 ml of 0.5 % Evans Blue saline solution containing DNP.BSA (1 mg in protein) was injected through the tail vein to induce allergic reaction. After 30 minutes, the rats were sacrificed by bleeding and the skin of back where dye was leaked out was flayed and put it into 20 ml test tube with ground stopper. Thereto was added 1.0 ml of 1N KOH aqueous solution and then it was allowed to stand at 37° C. in incubator overnight for lysing. To this solution was added 8.3 ml of a mixture of acetone and 0.6N phosphoric acid (13:5) and the mixture was mixed well and then was filtered to remove the insoluble materials.
The test compounds were administered orally 1 hour before the antigen challenge. Suppression rate was expressed by percentage to the value in control where 0.5% aqueous methylcellulose solution was orally administered.

Data set [2] relates to extracted ileum (histamine contraction). Kind of data set: Antihistaminic activity: suppression of histamine-induced contraction of extracted ileum. Details: species or system Female Hartley guinea pig. As to conditions: histamine 3×10^-7 M; guinea pig ileum; 50% suppression of contraction; read-out: anti-His in extracted ileum EC50. The method, then:
Female Hartley guinea pig (weighing 500 to 650 g) were sacrificed and the ileum (length of about 10 to 25 cm) was extracted from the ileocecum to prepare a specimen (length of 3 cm). […] After allowing to stand for 60 minutes to make the specimen stable, a histamine (3×10^-7 M) was applied to the specimen at single application. Contraction of the specimen was determined and recorded using isotonic transducer. After repeating application of a histamine to make the contraction constant, a diluted solution of the test compound was applied. Three minutes after the application, a histamine was then added and an activity of suppressing contraction was examined.

The subject of data set [3] is male ICR mice. Put plainly: Toxicity Test (mouse acute toxicity, minimum lethal dose). The conditions noted are these: po, observed for 24 hours, head prints (10 mg/kg-po). In kind it is in vivo. The text has this:
The test compounds were orally administered to male ICR mice (weighing to 30 g) after fasting overnight. […] The results were expressed by minimum lethal dose. Toxicity of any compounds of the present invention were weaker than that of ketotifen which was a reference compound.

Some results are limits rather than exact numbers.

Regarding `CNS(=O)(=O)CCCCCCN1CCN(C(c2ccccc2)c2ccc(Cl)cc2)CC1` (stereo not drawn) [Example 21], the inhibition in vivo at 10 mg/kg in data set [1] was 89.7%. The EC50 (usually the midpoint of the concentration-response curve) in data set [2] worked out at 0.51 µM. The “mouse acute toxicity (lethal dose)” value in data set [3] is > 500 mg/kg.

As for `O=S(=O)(CCCCN1CCN(C(c2ccccc2)c2ccc(Cl)cc2)CC1)NC1CCCC1` (stereo not drawn) [Example 135], the inhibition in vivo at 10 mg/kg in data set [1] came out at 74.4%. Moreover, the EC50 in data set [2] turned out to be 1.1 µM. In addition, the “mouse acute toxicity (lethal dose)” value in data set [3] is listed as > 500 mg/kg.

Regarding `O=S(=O)(CCCCCCCN1CCN(C(c2ccccc2)c2ccc(Cl)cc2)CC1)NC1CCC1` (stereo not drawn) [Example 129], the inhibition in vivo at 10 mg/kg in data set [1] amounted to 92.2%. Also, in data set [2], the EC50 turned out to be 1.8 µM. Besides, the “mouse acute toxicity (lethal dose)” value in data set [3] was > 500 mg/kg.

Regarding `CCNS(=O)(=O)CCCCCCN1CCN(C(c2ccccc2)c2ccc(Cl)cc2)CC1` (stereo not drawn) [Example 29], the inhibition in vivo at 10 mg/kg in data set [1] came to 95.7%. Further, the EC50 in data set [2] is 0.75 µM. Besides, in data set [3], the “mouse acute toxicity (lethal dose)” value is > 500 mg/kg.

For `NS(=O)(=O)CCCCCCCCN1CCN(C(c2ccccc2)c2ccc(Cl)cc2)CC1` (stereo not drawn) [Example 4], in data set [1], the inhibition in vivo at 10 mg/kg is 89%. Further, the EC50 in data set [2] came to 0.65 µM. For the same compound, the “mouse acute toxicity (lethal dose)” value in data set [3] is reported as > 500 mg/kg.

On to `CCNS(=O)(=O)CCCCCN1CCN(C(c2ccc(F)cc2)c2ccccn2)CC1` (stereo not drawn) [Example 31], for which the inhibition in vivo at 10 mg/kg in data set [1] was 87.2%. For the same compound, the EC50 in data set [2] was determined as 0.77 µM. Moreover, in data set [3], the “mouse acute toxicity (lethal dose)” value is listed as > 500 mg/kg.

As for `CC(C)NS(=O)(=O)CCCCCCN1CCN(C(c2ccccc2)c2ccc(Cl)cc2)CC1` (stereo not drawn) [Example 43], the inhibition in vivo at 10 mg/kg in data set [1] was 86.5%. The EC50 in data set [2] stood at 0.69 µM. Besides, the “mouse acute toxicity (lethal dose)” value in data set [3] is on record as > 500 mg/kg.

`O=S(=O)(CCCCCCCN1CCN(C(c2ccccc2)c2ccc(Cl)cc2)CC1)NC1CCCC1` (stereo not drawn) [Example 137]: the inhibition in vivo at 10 mg/kg in data set [1] is 75.8%. Further, the EC50 in data set [2] was found to be 2.2 µM. Also, the “mouse acute toxicity (lethal dose)” value in data set [3] was > 500 mg/kg.

On to `O=S(=O)(CCCCCCN1CCN(C(c2ccccc2)c2ccc(Cl)cc2)CC1)NCCO` (stereo not drawn) [Example 101], for which the inhibition in vivo at 10 mg/kg in data set [1] is 88%. The concentration giving a half-maximal response (EC50) in data set [2] worked out at 0.81 µM. In addition, in data set [3], the “mouse acute toxicity (lethal dose)” value was > 500 mg/kg.

On to `CN(C)S(=O)(=O)CCCCCCN1CCN(C(c2ccccc2)c2ccc(Cl)cc2)CC1` (stereo not drawn) [Example 64], for which the inhibition in vivo at 10 mg/kg in data set [1] came to 72.5%. The EC50 in data set [2] is 0.36 µM. The “mouse acute toxicity (lethal dose)” value in data set [3] was > 500 mg/kg.

For `NS(=O)(=O)CCCCCCCCCCN1CCN(C(c2ccccc2)c2ccc(Cl)cc2)CC1` (stereo not drawn) [Example 104], in data set [1], the inhibition in vivo at 10 mg/kg was found to be 86.7%. Also, in data set [2], the EC50 amounted to 6.8 µM. In addition, in data set [3], the “mouse acute toxicity (lethal dose)” value is recorded as > 500 mg/kg.

`CNS(=O)(=O)CCCCCCN1CCN(C(c2ccc(F)cc2)c2ccccn2)CC1` (stereo not drawn) [Example 26]: in data set [1], the inhibition in vivo at 10 mg/kg came to 71%. The EC50 in data set [2] was 0.3 µM. For the same compound, the “mouse acute toxicity (lethal dose)” value in data set [3] is > 500 mg/kg.

As for `CN(C)S(=O)(=O)CCCCCCCCN1CCN(C(c2ccccc2)c2ccccc2F)CC1` (stereo not drawn) [Example 69], the inhibition in vivo at 10 mg/kg in data set [1] turned out to be 88.3%. Also, the EC50 in data set [2] came to 0.15 µM. In data set [3], the “mouse acute toxicity (lethal dose)” value was > 500 mg/kg.

Consider `CN(C)S(=O)(=O)CCCCCCN1CCN(C(c2ccc(F)cc2)c2ccc(F)cc2)CC1` [Example 65], for which the inhibition in vivo at 10 mg/kg in data set [1] is 74.7%. Also, the EC50 in data set [2] was found to be 0.43 µM. For the same compound, in data set [3], the “mouse acute toxicity (lethal dose)” value was > 500 mg/kg.

For the compound `O=S(=O)(CCCCCCN1CCN(C(c2ccccc2)c2ccc(Cl)cc2)CC1)NC1CCCC1` (stereo not drawn) [Example 59], the inhibition in vivo at 10 mg/kg in data set [1] was found to be 96.4%. In data set [2], the EC50 amounted to 2.9 µM. Also, the “mouse acute toxicity (lethal dose)” value in data set [3] is listed as > 500 mg/kg.

`CC(C)NS(=O)(=O)CCCCCCCCN1CCN(C(c2ccc(F)cc2)c2ccccn2)CC1` (stereo not drawn) [Example 48]: in data set [1], the inhibition in vivo at 10 mg/kg turned out to be 83.8%. For the same compound, the EC50 in data set [2] worked out at 0.35 µM. The “mouse acute toxicity (lethal dose)” value in data set [3] was > 500 mg/kg.

Turning to `CN(C)S(=O)(=O)CCCCCCN1CCN(C(c2ccncc2)c2ccc(Cl)cc2)CC1` (stereo not drawn) [Example 66], the inhibition in vivo at 10 mg/kg in data set [1] came out at 82.8%. The EC50 in data set [2] was determined as 0.42 µM. The “mouse acute toxicity (lethal dose)” value in data set [3] is listed as > 500 mg/kg.

`CN(C)S(=O)(=O)CCCCCCCN1CCN(C(c2ccccc2)c2ccc(Cl)cc2)CC1` (stereo not drawn) [Example 150]: the inhibition in vivo at 10 mg/kg in data set [1] was determined as 89.1%. Moreover, the EC50 in data set [2] came out at 0.35 µM. Besides, the “mouse acute toxicity (lethal dose)” value in data set [3] was > 500 mg/kg.

In the case of `CCNS(=O)(=O)CCCCCCN1CCN(C(c2ccc(F)cc2)c2ccccn2)CC1` (stereo not drawn) [Example 32], the inhibition in vivo at 10 mg/kg in data set [1] is 86.8%. Moreover, the EC50 in data set [2] came out at 0.84 µM. Besides, in data set [3], the “mouse acute toxicity (lethal dose)” value is > 500 mg/kg.

Take `CCCNS(=O)(=O)CCCCCCN1CCN(C(c2ccc(F)cc2)c2ccccn2)CC1` (stereo not drawn) [Example 39]: the inhibition in vivo at 10 mg/kg in data set [1] was determined as 83.8%. In data set [2], the EC50 was 0.81 µM. In data set [3], the “mouse acute toxicity (lethal dose)” value was > 500 mg/kg.

Consider `O=S(=O)(CCCCCN1CCN(C(c2ccccc2)c2ccc(Cl)cc2)CC1)NC1CCCC1` (stereo not drawn) [Example 136], for which the inhibition in vivo at 10 mg/kg in data set [1] turned out to be 80.2%. Besides, the EC50 in data set [2] was 0.54 µM. Moreover, in data set [3], the “mouse acute toxicity (lethal dose)” value is > 500 mg/kg.

On to `COc1cc(NS(=O)(=O)CCCCCCN2CCN(C(c3ccccc3)c3ccccc3)CC2)cc(OC)c1OC` [Example 99], for which the inhibition in vivo at 10 mg/kg in data set [1] was determined as 72.1%. Further, the half-maximal effective concentration (EC50) in data set [2] worked out at 1.3 µM. Also, the “mouse acute toxicity (lethal dose)” value in data set [3] is > 500 mg/kg.

In the case of `O=S(=O)(CCCCCCN1CCN(C(c2ccccc2)c2ccc(F)cc2)CC1)NC1CC1` (stereo not drawn) [Example 124], in data set [1], the inhibition in vivo at 10 mg/kg came out at 88.4%. The EC50 in data set [2] was 0.2 µM. Besides, in data set [3], the “mouse acute toxicity (lethal dose)” value is on record as > 500 mg/kg.

For the compound `NS(=O)(=O)CCCCCCCCN1CCN(C(c2ccc(F)cc2)c2ccccn2)CC1` (stereo not drawn) [Example 13], the inhibition in vivo at 10 mg/kg in data set [1] worked out at 73.8%. For the same compound, the EC50 in data set [2] came out at 0.32 µM. Also, the “mouse acute toxicity (lethal dose)” value in data set [3] is given as > 500 mg/kg.

Turning to `CCNS(=O)(=O)CCCCCCCCN1CCN(C(c2ccccc2)c2ccc(Cl)cc2)CC1` (stereo not drawn) [Example 108], in data set [1], the inhibition in vivo at 10 mg/kg stood at 82.2%. Moreover, the EC50 in data set [2] stood at 0.68 µM. In addition, the “mouse acute toxicity (lethal dose)” value in data set [3] is listed as > 500 mg/kg.

In the case of `CCCNS(=O)(=O)CCCCCCCCCCN1CCN(C(c2ccc(F)cc2)c2ccccn2)CC1` (stereo not drawn) [Example 42], in data set [1], the inhibition in vivo at 10 mg/kg is 80.2%. Besides, the EC50 in data set [2] is 0.33 µM. The “mouse acute toxicity (lethal dose)” value in data set [3] is > 500 mg/kg.

As for `NS(=O)(=O)CCCCCCN1CCN(C(c2ccccc2)c2ccc(Cl)cc2)CC1` (stereo not drawn) [Example 3], in data set [1], the inhibition in vivo at 10 mg/kg came to 95.2%. The EC50 in data set [2] worked out at 0.76 µM. Also, in data set [3], the “mouse acute toxicity (lethal dose)” value was > 500 mg/kg.

For the compound `CN(C)S(=O)(=O)CCCCCCN1CCN(C(c2ccccc2)c2ccccn2)CC1` (stereo not drawn) [Example 67], the inhibition in vivo at 10 mg/kg in data set [1] amounted to 84.1%. The EC50 in data set [2] came to 0.42 µM. Besides, the “mouse acute toxicity (lethal dose)” value in data set [3] is on record as > 500 mg/kg.

Regarding `CC(C)NS(=O)(=O)CCCCCN1CCN(C(c2ccc(F)cc2)c2ccccn2)CC1` (stereo not drawn) [Example 45], the inhibition in vivo at 10 mg/kg in data set [1] came to 84%. Besides, the EC50 in data set [2] turned out to be 0.74 µM. For the same compound, in data set [3], the “mouse acute toxicity (lethal dose)” value is listed as > 500 mg/kg.

Regarding `O=S(=O)(CCCCCCCN1CCN(C(c2ccccc2)c2ccc(Cl)cc2)CC1)NC1CC1` (stereo not drawn) [Example 115], the inhibition in vivo at 10 mg/kg in data set [1] is 73.2%. Moreover, the EC50 in data set [2] stood at 0.79 µM. Also, in data set [3], the “mouse acute toxicity (lethal dose)” value is reported as > 500 mg/kg.
